Reference: US8575091B1, “Amylin analogues and pharmaceutical compositions thereof” (Novo Nordisk A/S, priority 2012, dated 2013)
Numbered stars: 1 amine (or outer) side, 2 acyl side, 3 side chain; on linkers, the order of the positions; unused ones are H or OH. Bridge positions count the residues as written; N and C are the ends. Peptide text beside a SMILES is read from it. * marks the point of attachment. C20 diacid = O=C(O)CCCCCCCCCCCCCCCCCCC(=O)*; γGlu = O=C(O)[C@H](CCC(=O)[*:2])N[*:1]

Key:
[1] = target: T1, human amylin receptor (amylin 3(a) receptor: human calcitonin receptor + RAMP-3) (Homo sapiens, UniProt O60896+P30988); test: Assay (II)a functional assay, human amylin receptor (CRE luciferase, BHK cells); format: cell-based; conditions: for EC50: functional assay, human amylin receptor, read-out: hAmylin-R funct. EC50
T1 construct: expressed in transfected cells
T1 sequence (P30988 25-474): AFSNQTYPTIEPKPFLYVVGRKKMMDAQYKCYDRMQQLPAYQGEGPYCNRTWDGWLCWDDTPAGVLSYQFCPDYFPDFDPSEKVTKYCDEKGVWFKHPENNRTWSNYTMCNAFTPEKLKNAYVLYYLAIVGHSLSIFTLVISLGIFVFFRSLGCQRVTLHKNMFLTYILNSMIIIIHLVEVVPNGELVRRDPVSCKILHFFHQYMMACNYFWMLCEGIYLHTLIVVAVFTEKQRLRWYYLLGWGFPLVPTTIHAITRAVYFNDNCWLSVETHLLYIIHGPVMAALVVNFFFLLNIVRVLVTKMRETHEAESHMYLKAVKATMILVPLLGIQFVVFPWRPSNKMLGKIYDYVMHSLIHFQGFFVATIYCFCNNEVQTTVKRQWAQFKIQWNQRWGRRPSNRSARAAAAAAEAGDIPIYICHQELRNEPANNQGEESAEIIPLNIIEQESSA
T1 sequence (O60896 24-148 partner): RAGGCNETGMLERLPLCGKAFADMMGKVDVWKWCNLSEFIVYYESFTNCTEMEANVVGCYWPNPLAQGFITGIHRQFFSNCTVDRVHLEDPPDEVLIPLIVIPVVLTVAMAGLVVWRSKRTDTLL

[2] = target: T2, human calcitonin receptor (Homo sapiens, UniProt P30988); test: Assay (II)a functional assay, human calcitonin receptor (CRE luciferase, BHK cells);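 also: luminescence from a CRE-driven luciferase reporter, read by single photon counting after cells were exposed to test samples for 3 h at 37 °C under 5% CO2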; format: cell-based; conditions: read-out: hCTR funct. EC50
T2 construct: expressed in transfected cells
T2 sequence (P30988 25-474): T1 sequence (P30988 25-474)

[3] = target: T3, human amylin receptor (Homo sapiens, UniProt O60896+P30988); test: Assay (V) binding to the human amylin receptor (SPA, 125I-rat amylin); conditions: for IC50: human amylin receptor membranes, SPA, read-out: hAmylin-R bind IC50
T3 construct: expressed in transfected cells
T3 sequence (P30988 25-474): T1 sequence (P30988 25-474)
T3 sequence (O60896 24-148 partner): T1 sequence (O60896 24-148 partner)
Outline: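 IC50, taken as receptor affinity, came from one-site binding competition analysis of scintillation proximity counts. Amylin 3(a)/CRE-luc cell membranes (35 ng/μL final) were mixed with SPA beads (0.05 mg/well) in 50 mM Hepes pH 7.4 containing CaCl2, MgCl2, 0.1% OA and 0.02% Tween20.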

[4] = target: T2, human calcitonin receptor; test: Assay (VII) binding to the human calcitonin receptor (SPA, 125I-Calcitonin); conditions: read-out: hCTR bind IC50;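 also: cell membranes coupled to SPA beads, competitive displacement read by scintillation counting, IC50 derived from a one-site competition fit as a measure of receptor affinity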
[5] = Table 7b, human calcitonin receptor binding IC50 divided by human amylin receptor binding IC50
[6] = Table 7c, human calcitonin receptor binding IC50 divided by human amylin receptor binding IC50
[7] = human binding ratio, included for comparison

SMILES	Ratio hCT/hAmylin funct. ([1]; Table 6, human functional selectivity (hCTR EC50 / hAmylin-R EC50))	Ratio hCT/hAmylin funct. ([1]; Table 6a, human functional selectivity (hCTR EC50 / hAmylin-R EC50), at least 5)	Ratio hCT/hAmylin funct. ([1]; Table 6j, hCTR funct. EC50 / hAmylin-R funct. EC50)	Ratio hCT/hAmylin funct. ([1]; Table 6k, hCTR funct. EC50 / hAmylin-R funct. EC50)	EC50 [1] [nM]	EC50 [2] [nM]	Ratio hCT/hAmylin binding [3, 5]	Ratio hCT/hAmylin binding [3, 6]	IC50 [3] [nM]	Ratio hCT/hAmylin binding [3, 7]	IC50 [4] [nM]
CC[C@H](C)[C@H](NC(=O)[C@H](C)NC(=O)CNC(=O)[C@H](Cc1ccccc1)NC(=O)[C@H](CC(N)=O)NC(=O)[C@@H]1CCCN1C(=O)[C@H](CO)NC(=O)[C@H](CO)NC(=O)[C@H](Cc1c[nH]cn1)NC(=O)[C@H](CCCNC(=N)N)NC(=O)[C@H](CC(C)C)NC(=O)[C@H](Cc1ccccc1)NC(=O)[C@H](CC(N)=O)NC(=O)[C@H](C)NC(=O)[C@H](CC(C)C)NC(=O)[C@H](CCCNC(=N)N)NC(=O)[C@H](CCC(N)=O)NC(=O)[C@@H](NC(=O)[C@H](C)NC(=O)[C@@H]1CSSC[C@H](NC(=O)[C@H](CCCCN)NC(=O)CC[C@H](NC(=O)CCCCCCCCCCCCCCCCCCC(=O)O)C(=O)O)C(=O)N[C@@H](CC(N)=O)C(=O)N[C@@H]([C@@H](C)O)C(=O)N[C@@H](C)C(=O)N[C@@H]([C@@H](C)O)C(=O)N1)[C@@H](C)O)C(=O)N1CCC[C@H]1C(=O)N[C@@H](CO)C(=O)N[C@@H](CO)C(=O)N[C@H](C(=O)N[C@@H](CC(N)=O)C(=O)N[C@H](C(=O)NCC(=O)N[C@@H](CO)C(=O)N[C@@H](CCC(=O)O)C(=O)N[C@H](C(=O)N[C@@H](Cc1ccc(O)cc1)C(N)=O)[C@@H](C)O)C(C)C)[C@@H](C)O [Example 23]	8.9	8.9	8.9	8.9	0.34	3.02	25.0	25.0	0.871	25.0	21.8
CC[C@H](C)[C@H](NC(=O)[C@H](C)NC(=O)CNC(=O)[C@H](Cc1ccccc1)NC(=O)[C@H](CC(N)=O)NC(=O)[C@@H]1CCCN1C(=O)[C@H](CO)NC(=O)[C@H](CO)NC(=O)[C@H](Cc1c[nH]cn1)NC(=O)[C@H](CCCNC(=N)N)NC(=O)[C@H](CC(C)C)NC(=O)[C@H](Cc1ccccc1)NC(=O)[C@H](CC(N)=O)NC(=O)[C@H](C)NC(=O)[C@H](CC(C)C)NC(=O)[C@H](CCCNC(=N)N)NC(=O)[C@H](CCC(N)=O)NC(=O)[C@@H](NC(=O)[C@H](C)NC(=O)[C@@H]1CSSC[C@H](NC(=O)[C@H](CCCCN)NC(=O)COCCOCCNC(=O)COCCOCCNC(=O)CC[C@H](NC(=O)CCCCCCCCCCCCCCCCCCC(=O)O)C(=O)O)C(=O)N[C@@H](CC(N)=O)C(=O)N[C@@H]([C@@H](C)O)C(=O)N[C@@H](C)C(=O)N[C@@H]([C@@H](C)O)C(=O)N1)[C@@H](C)O)C(=O)N1CCC[C@H]1C(=O)N[C@@H](CO)C(=O)N[C@@H](CO)C(=O)N[C@H](C(=O)N[C@@H](CC(N)=O)C(=O)N[C@H](C(=O)NCC(=O)N[C@@H](CO)C(=O)N[C@@H](CC(N)=O)C(=O)N[C@H](C(=O)N[C@@H](Cc1ccc(O)cc1)C(N)=O)[C@@H](C)O)C(C)C)[C@@H](C)O [Example 24]					0.433	10	90.0	90.0	1.14	90.0	102
CC[C@H](C)[C@H](NC(=O)[C@H](C)NC(=O)CNC(=O)[C@H](Cc1ccccc1)NC(=O)[C@H](CC(N)=O)NC(=O)[C@@H]1CCCN1C(=O)[C@H](CO)NC(=O)[C@H](CO)NC(=O)[C@H](Cc1c[nH]cn1)NC(=O)[C@H](CCCNC(=N)N)NC(=O)[C@H](CC(C)C)NC(=O)[C@H](Cc1ccccc1)NC(=O)[C@H](CC(N)=O)NC(=O)[C@H](C)NC(=O)[C@H](CC(C)C)NC(=O)[C@H](CCCNC(=N)N)NC(=O)[C@H](CCC(N)=O)NC(=O)[C@@H](NC(=O)[C@H](C)NC(=O)[C@@H]1CSSC[C@H](NC(=O)[C@@H](N)CCCCNC(=O)COCCOCCNC(=O)COCCOCCNC(=O)CC[C@H](NC(=O)CCCCCCCCCCCCCCCCCCC(=O)O)C(=O)O)C(=O)N[C@@H](CC(N)=O)C(=O)N[C@@H]([C@@H](C)O)C(=O)N[C@@H](C)C(=O)N[C@@H]([C@@H](C)O)C(=O)N1)[C@@H](C)O)C(=O)N1CCC[C@H]1C(=O)N[C@@H](CO)C(=O)N[C@@H](CO)C(=O)N[C@H](C(=O)N[C@@H](CC(N)=O)C(=O)N[C@H](C(=O)NCC(=O)N[C@@H](CO)C(=O)N[C@@H](CCC(=O)O)C(=O)N[C@H](C(=O)N[C@@H](Cc1ccc(O)cc1)C(N)=O)[C@@H](C)O)C(C)C)[C@@H](C)O [Example 25]					0.217	10			0.768		43.4
CC[C@H](C)[C@H](NC(=O)[C@H](C)NC(=O)CNC(=O)[C@H](Cc1ccccc1)NC(=O)[C@H](CC(N)=O)NC(=O)[C@@H]1CCCN1C(=O)[C@H](CO)NC(=O)[C@H](CO)NC(=O)[C@H](Cc1c[nH]cn1)NC(=O)[C@H](CCCNC(=N)N)NC(=O)[C@H](CC(C)C)NC(=O)[C@H](Cc1ccccc1)NC(=O)[C@H](CC(N)=O)NC(=O)[C@H](C)NC(=O)[C@H](CC(C)C)NC(=O)[C@H](CCCNC(=N)N)NC(=O)[C@H](CCC(N)=O)NC(=O)[C@@H](NC(=O)[C@H](C)NC(=O)[C@@H]1CSSC[C@H](NC(=O)[C@@H](N)CCCCNC(=O)CC[C@H](NC(=O)CCCCCCCCCCCCCCCCCCC(=O)O)C(=O)O)C(=O)N[C@@H](CC(N)=O)C(=O)N[C@@H]([C@@H](C)O)C(=O)N[C@@H](C)C(=O)N[C@@H]([C@@H](C)O)C(=O)N1)[C@@H](C)O)C(=O)N1CCC[C@H]1C(=O)N[C@@H](CO)C(=O)N[C@@H](CO)C(=O)N[C@H](C(=O)N[C@@H](CC(N)=O)C(=O)N[C@H](C(=O)NCC(=O)N[C@@H](CO)C(=O)N[C@@H](CCC(=O)O)C(=O)N[C@H](C(=O)N[C@@H](Cc1ccc(O)cc1)C(N)=O)[C@@H](C)O)C(C)C)[C@@H](C)O [Example 27]					0.133	3			0.837		34.5
CC[C@H](C)[C@H](NC(=O)[C@H](C)NC(=O)CNC(=O)[C@H](Cc1ccccc1)NC(=O)[C@H](CC(N)=O)NC(=O)[C@@H]1CCCN1C(=O)[C@H](CO)NC(=O)[C@H](CO)NC(=O)[C@H](Cc1c[nH]cn1)NC(=O)[C@H](CCCNC(=N)N)NC(=O)[C@H](CC(C)C)NC(=O)[C@H](Cc1ccccc1)NC(=O)[C@H](Cc1c[nH]cn1)NC(=O)[C@H](C)NC(=O)[C@H](CC(C)C)NC(=O)[C@H](CCCNC(=N)N)NC(=O)[C@H](CCC(N)=O)NC(=O)[C@@H](NC(=O)[C@H](C)NC(=O)[C@@H]1CSSC[C@H](NC(=O)[C@H](CCCCN)NC(=O)CC[C@H](NC(=O)CCCCCCCCCCCCCCCCCCC(=O)O)C(=O)O)C(=O)N[C@@H](CC(N)=O)C(=O)N[C@@H]([C@@H](C)O)C(=O)N[C@@H](C)C(=O)N[C@@H]([C@@H](C)O)C(=O)N1)[C@@H](C)O)C(=O)N1CCC[C@H]1C(=O)N[C@@H](CO)C(=O)N[C@@H](CO)C(=O)N[C@H](C(=O)N[C@@H](CC(N)=O)C(=O)N[C@H](C(=O)NCC(=O)N[C@@H](CO)C(=O)N[C@@H](CCC(=O)O)C(=O)N[C@H](C(=O)N[C@@H](Cc1ccc(O)cc1)C(N)=O)[C@@H](C)O)C(C)C)[C@@H](C)O [Example 30] ({C20 diacid-γGlu}-KCNTATCATQRLAHFLRHSSPNFGAIPSSTNVGSETY-NH2; disulfide 2-7)					0.134	1.68			0.919		21.7
